Assay results taken from patent US4760136A, “Chartreusin derivatives and salts thereof” (Ishihara Sangyo Kaisha, Ltd., priority 1984, dated 1988).
Structures can show the parent of a compound that is named as a salt.

What was measured:
P-388 leukemia cells = assay: Antitumor activity: P-388 leukemia cells inoculated intraperitoneally, drug administered intravenously, BDF1 mice; assay type: in vivo; conditions: BDF1 mice, P-388 i.p.; for response vs control in vivo at 10 mg/kg: dose a: 10 mg/kg × 3, i.v. on days 1, 5 and 9; for response vs control in vivo at 60 mg/kg: dose e: 60 mg/kg × 3, i.v. on days 1, 5 and 9; for response vs control in vivo at 80 mg/kg: dose f: 80 mg/kg × 3, i.v. on days 1, 5 and 9
Description: Into BDF1 mice were inoculated intraperitoneally P-388 leukemia cells at a rate of 1×10^6 cells/mouse, and each drug to be tested was administered intravenously on the first, fifth and ninth days after the inoculation. […] The drugs were as follows solutions prepared by adding physiological saline to each of compound Nos. 8, 9, 10, 11, 17, 34, 42, 59, 80 and 134; suspensions prepared by dispersing each of compound Nos. 41, 78, 98, 100, 130, 191, 212, 213, 215, 227 and 230 to 232 and a small amount of sodium carboxymethyl cellulose (Na.CMC) in physiological saline, […]

[1] = Acute toxicity, intravenous (once), ddY mice; assay type: in vivo; conditions: mouse, in vivo, iv, formulated per Preparation Example
Source text: In Table 7 are shown acute toxicity values (LD50, mg/kg) in ddY mice in the case of intravenously administering (once) each of the compounds of this invention in the form of preparations shown in the Preparation Examples shown in Table 7.

[2] = Mus musculus, P388, iv, dose b: 20 mg/kg × 3, i.v. on days 1, 5 and 9, read-out: T/C (%) of MST
[3] = Mus musculus, P388, iv, dose c: 40 mg/kg × 3, i.v. on days 1, 5 and 9, read-out: T/C (%) of MST
[4] = Mus musculus, P388, iv, read-out: T/C (%) of MST

Structure (SMILES) | response vs control in vivo at 20 mg/kg (P-388 leukemia cells; [2]) [%] | response vs control in vivo at 40 mg/kg (P-388 leukemia cells; [3]) [%] | LD50 [1] [mg/kg] | also measured
COC1C(O)C(C)OC(OC2C(Oc3cccc4c(OC(=O)C(C)CNC(=O)CN)c5c(=O)oc6ccc(C)c7c(=O)oc(c34)c5c67)OC(C)C3OC(c4ccccc4)OC32)C1O (centres unmarked) [Compound No. 3] | 150 | 192 | ≥ 40 | 
CO[C@H]1[C@@H](O)[C@@H](C)O[C@H](O[C@H]2[C@H](Oc3cccc4c(OC(=O)C=C(C)C(F)(F)F)c5c(=O)oc6ccc(C)c7c(=O)oc(c34)c5c67)O[C@H](C)[C@@H]3OC(C)(C)O[C@@H]32)[C@@H]1O [compound 198] |  | 176 | ≥ 80 | 
COC1C(O)C(C)OC(OC2C(Oc3cccc4c(OC(=O)CCN5CCOCC5)c5c(=O)oc6ccc(C)c7c(=O)oc(c34)c5c67)OC(C)C3OC(c4ccccc4)OC32)C1O (centres unmarked) [compound 32] | 186 |  | ≥ 40 | response vs control in vivo at 10 mg/kg (P-388 leukemia cells; [4]): 146%
CO[C@H]1[C@@H](O)[C@@H](C)O[C@H](O[C@H]2[C@H](Oc3cccc4c(OC(=O)c5ccc(Cl)cc5)c5c(=O)oc6ccc(C)c7c(=O)oc(c34)c5c67)O[C@H](C)[C@@H]3OC(c4ccccc4)O[C@@H]32)[C@@H]1O (some centres unmarked) [compound 194] | 130 | 192 | ≥ 40 | 
COC1C(O)C(C)OC(OC2C(Oc3cccc4c(OC(C)=O)c5c(=O)oc6ccc(C)c7c(=O)oc(c34)c5c67)OC(C)C3OC(C)(C)OC32)C1O (centres unmarked) [Compound No. 203, 6-O-Acetyl-3',4'-O-Isopropylidene-Chartreusin] |  |  | ≥ 60 | response vs control in vivo at 60 mg/kg (P-388 leukemia cells; [4]): 180%
COC1C(O)C(C)OC(OC2C(Oc3cccc4c(OC(=O)CCS(C)(=O)=O)c5c(=O)oc6ccc(C)c7c(=O)oc(c34)c5c67)OC(C)C3OC(c4ccccc4)OC32)C1O (centres unmarked) [Compound No. 168] | 167 |  | ≥ 40 | 
CO[C@H]1[C@@H](O)[C@@H](C)O[C@H](O[C@H]2[C@H](Oc3cccc4c(OC(=O)c5ccccc5Cl)c5c(=O)oc6ccc(C)c7c(=O)oc(c34)c5c67)O[C@H](C)[C@@H]3OC(c4cccc([N+](=O)[O-])c4)O[C@@H]32)[C@@H]1O (some centres unmarked) [Compound No. 189] |  | 146 | ≥ 80 | response vs control in vivo at 80 mg/kg (P-388 leukemia cells; [4]): 214%
COC1C(O)C(C)OC(OC2C(Oc3cccc4c(OC(=O)C(NC(=O)CNC(=O)CNC(=O)OCc5ccccc5)C(C)C)c5c(=O)oc6ccc(C)c7c(=O)oc(c34)c5c67)OC(C)C3OC(c4ccccc4)OC32)C1O (centres unmarked) [compound 115] | 135 |  | ≥ 40 | 
COC1C(O)C(C)OC(OC2C(Oc3cccc4c(OC(=O)CCNC(=O)c5ccccc5)c5c(=O)oc6ccc(C)c7c(=O)oc(c34)c5c67)OC(C)C3OC(c4ccccc4)OC32)C1O (centres unmarked) [Compound No. 23] | 205 | 233 | ≥ 40 | 
COC1C(O)C(C)OC(OC2C(Oc3cccc4c(OC(=O)c5ccccc5)c5c(=O)oc6ccc(C)c7c(=O)oc(c34)c5c67)OC(C)C3OC(C)(C)OC32)C1O (centres unmarked) [compound 242] | 137 |  | ≥ 40 | 
COC1C(O)C(C)OC(OC2C(Oc3cccc4c(OC(=O)CC[N+](=O)[O-])c5c(=O)oc6ccc(C)c7c(=O)oc(c34)c5c67)OC(C)C3OC(c4ccccc4)OC32)C1O (centres unmarked) [Compound No. 166] |  |  | ≥ 30 | response vs control in vivo at 10 mg/kg (P-388 leukemia cells; [4]): 138%
COC1C(O)C(C)OC(OC2C(Oc3cccc4c(OC(=O)CCNC(=O)OCc5ccccc5)c5c(=O)oc6ccc(C)c7c(=O)oc(c34)c5c67)OC(C)C3OC(C)(C)OC32)C1O (centres unmarked) [compound 107] |  | 139 | ≥ 100 | response vs control in vivo at 80 mg/kg (P-388 leukemia cells; [4]): 185%
COC1C(O)C(C)OC(OC2C(Oc3cccc4c(OC(=O)C(Cc5ccccc5)NC(=O)OCc5ccccc5)c5c(=O)oc6ccc(C)c7c(=O)oc(c34)c5c67)OC(C)C3OC(C)(C)OC32)C1O (centres unmarked) [compound 128] |  |  | ≥ 100 | response vs control in vivo at 50 mg/kg (P-388 leukemia cells; Mus musculus, P388, iv, dose d: 50 mg/kg × 3, i.v. on days 1, 5 and 9, read-out: T/C (%) of MST): 146%
COC1C(O)C(C)OC(OC2C(Oc3cccc4c(OC(=O)CNC(=O)CNC(=O)CNC(=O)OCc5ccccc5)c5c(=O)oc6ccc(C)c7c(=O)oc(c34)c5c67)OC(C)C3OC(c4ccccc4)OC32)C1O (centres unmarked) [Compound No. 114, 6-O-(N-Carbobenzyloxy-Glycyl-Glycyl-Glycyl)-3',4'-O-Benzylidene-Chartreusin] |  | 130 | ≥ 40 | 
COC1C(O)C(C)OC(OC2C(Oc3cccc4c(OC(=O)C(C)CN)c5c(=O)oc6ccc(C)c7c(=O)oc(c34)c5c67)OC(C)C3OC(c4ccccc4)OC32)C1O (stereo not drawn) [Compound No. 6, 6-O-(β-Amino-Isobutyryl)-3',4'-O-Benzylidene-Chartreusin Phosphate] | 182 | 242 | ≥ 40 | 
COC1C(O)C(C)OC(OC2C(Oc3cccc4c(OC(=O)CCC5CCCCC5)c5c(=O)oc6ccc(C)c7c(=O)oc(c34)c5c67)OC(C)C3OC(C)(C)OC32)C1O (centres unmarked) [Compound No. 240, 6-O-(3-Cryclohexyl-Propionyl)-3',4'-O-Isopropylidene-Chartreusin] |  |  | ≥ 60 | response vs control in vivo at 60 mg/kg (P-388 leukemia cells; [4]): 158%
CO[C@H]1[C@@H](O)[C@@H](C)O[C@H](O[C@H]2[C@H](Oc3cccc4c(OC(=O)C5CC5C)c5c(=O)oc6ccc(C)c7c(=O)oc(c34)c5c67)O[C@H](C)[C@@H]3OC(c4ccc(Cl)cc4)O[C@@H]32)[C@@H]1O (some centres unmarked) [Compound No. 190] |  | 145 | ≥ 80 | response vs control in vivo at 80 mg/kg (P-388 leukemia cells; [4]): 208%
COC1C(O)C(C)OC(OC2C(Oc3cccc4c(OC(=O)COC(C)=O)c5c(=O)oc6ccc(C)c7c(=O)oc(c34)c5c67)OC(C)C3OC(c4ccccc4)OC32)C1O (centres unmarked) [Compound No. 148] | 185 | 250 | ≥ 40 | 
COc1cccc(C(=O)Oc2c3cccc(O[C@@H]4O[C@H](C)[C@@H]5OC(c6ccccc6)O[C@@H]5[C@H]4O[C@H]4O[C@H](C)[C@H](O)[C@H](OC)[C@H]4O)c3c3oc(=O)c4c(C)ccc5oc(=O)c2c3c54)c1 (some centres unmarked) [compound 193] |  |  | ≥ 40 | response vs control in vivo at 10 mg/kg (P-388 leukemia cells; [4]): 162%
COC1C(O)C(C)OC(OC2C(Oc3cccc4c(OC(=O)CCN5CCCC5)c5c(=O)oc6ccc(C)c7c(=O)oc(c34)c5c67)OC(C)C3OC(c4cccc(F)c4)OC32)C1O (stereo not drawn) [Compound No. 34, 6-O-(β-1-pyrrolidinyl-propionyl)-3',4'-O-(m-fluorobenzylidene)-chartreusin phosphate] |  | 140 | ≥ 30 | 
COC1C(O)C(C)OC(OC2C(Oc3cccc4c(OC(=O)CCN)c5c(=O)oc6ccc(C)c7c(=O)oc(c34)c5c67)OC(C)C3OC(c4ccccc4)OC32)C1O (centres unmarked) [Compound No. 18] |  |  | ≥ 40 | T/C (%) of MST (P-388 leukemia cells; dose b: 20 mg/kg × 3, i.v. on days 1, 5 and 9): 196%; T/C (%) of MST (P-388 leukemia cells; dose c: 40 mg/kg × 3, i.v. on days 1, 5 and 9): 238%
COC1C(O)C(C)OC(OC2C(Oc3cccc4c(OC(=O)CC(C)C)c5c(=O)oc6ccc(C)c7c(=O)oc(c34)c5c67)OC(C)C3OC(c4cccc(Br)c4)OC32)C1O (centres unmarked) [Compound No. 163] |  | 156 | ≥ 80 | response vs control in vivo at 80 mg/kg (P-388 leukemia cells; [4]): 227%
COC1C(O)C(C)OC(OC2C(Oc3cccc4c(OC(=O)C(C)CN(C(=O)OCc5ccccc5)C(C)C)c5c(=O)oc6ccc(C)c7c(=O)oc(c34)c5c67)OC(C)C3OC(c4ccccc4)OC32)C1O (stereo not drawn) [Compound No. 135, 6-O-(N-Carbobenzyloxy-N-Isopropyl-β-Amino-isobutyryl)-3',4'-O-benzylidenechartreusin] | 167 |  | ≥ 40 | 
CCN(CC)CCC(=O)Oc1c2cccc(OC3OC(C)C4OC(c5ccccc5)OC4C3OC3OC(C)C(O)C(OC)C3O)c2c2oc(=O)c3c(C)ccc4oc(=O)c1c2c43 (stereo not drawn) [Compound No. 8, 6-O-(N,N-Diethyl-β-Alanyl)-3',4'-O-Benzylidene-Chartreusin Hydrochloride] | 186 | 220 | ≥ 40 | 
COC1C(O)C(C)OC(OC2C(Oc3cccc4c(OC(=O)CCCNC(=O)C(F)(F)F)c5c(=O)oc6ccc(C)c7c(=O)oc(c34)c5c67)OC(C)C3OC(c4ccccc4)OC32)C1O (centres unmarked) [Compound No. 24] | 161 | 223 | ≥ 40 | 
COC1C(O)C(C)OC(OC2C(Oc3cccc4c(OC(=O)CCCCCCCCCCCNC(C)=O)c5c(=O)oc6ccc(C)c7c(=O)oc(c34)c5c67)OC(C)C3OC(C)(C)OC32)C1O (centres unmarked) [compound 129] |  |  | ≥ 180 | response vs control in vivo at 160 mg/kg (P-388 leukemia cells; Mus musculus, P388, iv, dose i: 160 mg/kg × 3, i.v. on days 1, 5 and 9, read-out: T/C (%) of MST): 167%
